# Data published in paper PMC6520522, “In vitro and in vivo Metabolism of a Potent Inhibitor of Soluble Epoxide Hydrolase, 1-(1-Propionylpiperidin-4-yl)-3-(4-(trifluoromethoxy)phenyl)urea” (Frontiers in Pharmacology, 2019).
# Where “and” joins values, the source holds several entries; their conditions need not be identical. Equal values may be shown once.
# Assays:
# [1] = Metabolite identification/screening by LC-MS/MS (precursor ion scans, LC-MRM-MS) in rats; type: in vivo, rat; settings: for detection as TPPU metabolite: LC-MS/MS, in vivo in rats (blood, urine), Table 1 footnote: in vitro and in vivo; for share of TPPU metabolism, if formed: not detected by the LC-MRM-MS method; for concentration in rat urine, if formed (below method detection limit): rat urine after oral TPPU, LC-MRM-MS, no peak found, LOD
# Procedure: Healthy male rats (Sprague Dawley, n = 4) were housed in temperature-controlled housing with ad libitum standard chow and drinking water. […]. Both blood and urine samples were collected. Blood samples (10 μL) at time points of 0 (before dosing), 0.25, 0.5, 1, 2, 4, 8, 12, 24, 48, and 72 h post dose were collected from the tail vein. Collected blood samples were transferred to Eppendorf tubes containing 90 μL of EDTA solution (0.1% EDTA and 0.1% acetic acid) and were immediately shaken to avoid blood coagulation. The urine and feces samples were passively collected at the time points of 8, 12, 24, 48, and 72 h post dose. TAPU (10 μL) of 1 μM in methanol was added in each blood and urine sample as an internal standard solution. The blood sample extraction was performed with 200 μL ethyl acetate by liquid-liquid extraction. The representative urine samples were subjected to protein precipitation prior to analysis of TPPU and Phase I metabolites. Briefly, urine (10 μL) was treated with 50 μL acetonitrile. After vortex mixing and centrifugation, the supernatant was collected. The feces samples (50–100 mg) were extracted using 600 μL extraction solution (MeOH: EA = 1:1). The mixtures were kept at −20°C overnight to give efficient extraction of TPPU and its metabolites. On day 2, after vortex mixing and centrifugation, the supernatant was collected. The remaining residue was extracted an additional time with 300 μL extraction solution, and the supernatant was combined after centrifugation. The collected supernatants were dried using a speed vacuum concentrator and reconstituted in 50 μL of 100 nM CUDA solution in methanol. In addition, urine (10 μL) was diluted with water (50 μL) and then subjected to analysis of glucuronide or sulfate conjugates.
# (§1) LC-MS/MS analysis was conducted on an Agilent SL 1200 series LC system (Agilent, Palo Alto, CA) connected to a 4,000 Qtrap mass spectrometer (Applied Biosystems Instrument Corporation, Foster City, CA) with Turbo V ion source. Liquid chromatography was performed on a Kinetex® C18 column (100 × 2.1 mm, 1.7 μm). Three μL solution was injected onto the column held at 45°C for analysis. Mobile phase A and B were water with 0.1% acetic acid and acetonitrile with 0.1% acetic acid, respectively. The LC flow rate was 300 μL/min.
# (§2) The mass spectrometer was operated in both negative and positive modes. Three different scan types were employed to perform mass spectrometry analysis, including product ion scan, precursor ion scan (optimized parameters in Table S4) and MRM scan (optimized parameters in Table S5).
# . The other minor fragment ion at m/z 85 appeared at higher-energy collision induced dissociation (CID, 38 eV) and is derived from the C-O bond cleavage on the trifluoromethoxyphenyl group (Figure 1B). To support the structural identification of TPPU metabolites, six putative metabolites, M1–M4, α-keto amide metabolite and 4-(trifluoromethoxy)aniline were synthesized and analyzed by LC-MS/MS (Figure 2 and Table 2). In the negative ion mode, the fragment ion at m/z 176 was generated by all five synthetic putative metabolites (M1–M4 and α-keto amide metabolite). Apparently, this fragment ion (m/z 176) is a characteristic fragment that is generated by metabolites containing the 4-(trifluoromethoxy)aniline moiety. Therefore, precursor ion scan for m/z 176 can be used to screen for this kind of TPPU metabolite. The method limit of detection (LOD) is 2 ng/mL. In addition, the fragment ion at m/z 85 (from the trifluoro-methoxy) was also generated by these synthetic standards. […]. Therefore, precursor ion scan for m/z 85 can unveil a large number of possible TPPU metabolites, such as the ones-formed from amide hydrolysis and oxidation at aliphatic groups, aromatic ring, and nitrogen center. […]. […]
# [2] = Feces levels of TPPU and metabolites after single oral dose in rats; type: in vivo; settings: rat, single oral dose 10 mg/kg TPPU; for concentration at 8 h: 8h post dose; for concentration at 8 h / concentration at 12 h / concentration at 24 h / concentration at 48 h / concentration at 72 h: n = 3; for concentration at 12 h: 12h post dose; for concentration at 24 h: 24h post dose; for concentration at 48 h: 48h post dose; for concentration at 72 h: 72h post dose
# recombinant human sEH = biological target: T1, recombinant human sEH (Homo sapiens, UniProt P34913); test: sEH inhibition potency, CMNPC fluorescent assay; type: biochemical; settings: for IC50: CMNPC fluorescent assay, recombinant human sEH 1 nM, 30°C, average of three replicates, read-out: HsEH IC50
# T1 sequence (P34913 1-555): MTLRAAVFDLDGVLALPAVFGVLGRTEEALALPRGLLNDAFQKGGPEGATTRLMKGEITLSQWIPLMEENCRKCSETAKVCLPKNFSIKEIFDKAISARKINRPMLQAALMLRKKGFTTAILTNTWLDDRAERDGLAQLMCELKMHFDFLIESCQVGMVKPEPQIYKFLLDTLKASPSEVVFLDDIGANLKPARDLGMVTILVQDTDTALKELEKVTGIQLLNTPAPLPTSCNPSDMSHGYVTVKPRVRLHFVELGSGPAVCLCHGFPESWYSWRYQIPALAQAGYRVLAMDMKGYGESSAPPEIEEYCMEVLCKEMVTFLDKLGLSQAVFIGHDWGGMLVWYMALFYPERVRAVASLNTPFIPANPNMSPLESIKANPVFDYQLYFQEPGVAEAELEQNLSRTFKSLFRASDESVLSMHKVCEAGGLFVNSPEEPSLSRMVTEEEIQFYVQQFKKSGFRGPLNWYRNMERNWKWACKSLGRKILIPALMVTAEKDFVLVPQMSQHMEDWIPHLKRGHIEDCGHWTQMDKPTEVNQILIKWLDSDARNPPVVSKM
# Procedure: Briefly, recombinant human sEH [1 nM in sodium phosphate buffer (0.1 M, pH = 7.4, 0.1 mg/mL BSA)] was incubated with each analyte (0.1 < [I]final < 10,000 nM) at 30°C for 5 min. Then, the reaction was started with the addition to CMNPC ([S]final = 5 μM). The reaction was monitored kinetically for 10 min at 30°C. The formation of the fluorescent product 6-methoxynaphthaldehyde (λexcitation = 330 nm, λemission = 465 nm, 30°C) was measured every 30 s. IC50 values were determined by regression of the remaining activity in function of the inhibitor concentrations. Assays were run in triplicate and IC50 values are the averages of three replicates.
# [3] = In vitro metabolism of TPPU in liver S9 fractions; type: in vitro ADME, human, monkey, dog, rat, mouse; settings: for formation of metabolite in liver S9 fractions: with NADPH regeneration system, rat, mouse, dog, monkey, human, 2 h; for formation of metabolite in liver S9 fractions in the absence of a NADPH generation system: without NADPH, liver S9 fractions (Figure S1: human)
# Procedure: The in vitro study of TPPU metabolism was conducted following previous methods as described (Watanabe and Hammock, [2001]). Briefly, 1 μL of TPPU (1 mM in DMSO; [TPPU]final = 10 μM) was mixed with 94 μL of diluted liver S9 fractions (final, 0.05 mg protein/mL) from human, monkey, dog, rat, and mouse and incubations were conducted in a 10 mL glass vial. After 5 min preincubation at 37°C, the reaction was initiated by adding 5 μL of NADPH regeneration solution. The NADPH regeneration solution was prepared by mixing 50 μL of NADP^+ (100 mM), 50 μL of G6P (500 mM), 50 μL of G6PDH (100 Unit/mL), and 100 μL of sodium phosphate buffer. Incubation without NADPH regeneration solution was used as control. Reactions were kept for 2 h and terminated by addition of 100 μL of ice-cold methanol containing CUDA (200 nM) as an internal standard. The mixture was followed by vigorous mixing for 2 min and centrifuging at 10,000^*g for 10 min. Each supernatant was transferred to an HPLC vial and kept under 4°C until LC-MS analysis.
# as §1
# [4] = Urine levels of TPPU and metabolites after single oral dose in rats; type: in vivo; settings: male, Sprague Dawley, rat, single oral dose 10 mg/kg TPPU, n = 3; for concentration at 8 h: 8h post dose; for concentration at 12 h: 12h post dose; for concentration at 24 h: 24h post dose; for concentration at 48 h: 48h post dose; for concentration at 72 h: 72h post dose
# [5] = Blood pharmacokinetics of TPPU and its metabolites after single oral dose in rats; type: in vivo; settings: for half-life: rat, po, 10 mg/kg, n = 4, read-out: T1/2 (half-life) (converted); for share of the total TPPU-related exposure in blood: single oral dose of TPPU, over 72 h
# Procedure: Healthy male rats (Sprague Dawley, n = 4) were housed in temperature-controlled housing with ad libitum standard chow and drinking water. Each rat received TPPU (dissolved in 0.5 mL PEG400) at a dose of 10 mg/kg by oral gavage in order to generate significant amounts of metabolites while corresponding to previous efficacious concentration doses. Both blood and urine samples were collected. Blood samples (10 μL) at time points of 0 (before dosing), 0.25, 0.5, 1, 2, 4, 8, 12, 24, 48, and 72 h post dose were collected from the tail vein. Collected blood samples were transferred to Eppendorf tubes containing 90 μL of EDTA solution (0.1% EDTA and 0.1% acetic acid) and were immediately shaken to avoid blood coagulation. The urine and feces samples were passively collected at the time points of 8, 12, 24, 48, and 72 h post dose. TAPU (10 μL) of 1 μM in methanol was added in each blood and urine sample as an internal standard solution. The blood sample extraction was performed with 200 μL ethyl acetate by liquid-liquid extraction. The representative urine samples were subjected to protein precipitation prior to analysis of TPPU and Phase I metabolites. Briefly, urine (10 μL) was treated with 50 μL acetonitrile. After vortex mixing and centrifugation, the supernatant was collected. The feces samples (50–100 mg) were extracted using 600 μL extraction solution (MeOH: EA = 1:1). The mixtures were kept at −20°C overnight to give efficient extraction of TPPU and its metabolites. On day 2, after vortex mixing and centrifugation, the supernatant was collected. The remaining residue was extracted an additional time with 300 μL extraction solution, and the supernatant was combined after centrifugation. The collected supernatants were dried using a speed vacuum concentrator and reconstituted in 50 μL of 100 nM CUDA solution in methanol. In addition, urine (10 μL) was diluted with water (50 μL) and then subjected to analysis of glucuronide or sulfate conjugates.
# as §1, §2
# [6] = male, Sprague Dawley, whole blood, oral gavage 10 mg/kg
Molecule,"concentration at 8 h ([2]; male, Sprague Dawley, feces) [ng/mL]","concentration at 12 h ([2]; male, Sprague Dawley, feces) [ng/mL]","concentration at 24 h ([2]; male, Sprague Dawley, feces) [ng/mL]","concentration at 48 h ([2]; male, Sprague Dawley, feces) [ng/mL]","concentration at 72 h ([2]; male, Sprague Dawley, feces) [ng/mL]",IC50 (recombinant human sEH),formation of metabolite in liver S9 fractions [3],formation of metabolite in liver S9 fractions in the absence of a NADPH generation system [3],concentration at 8 h [4] [ng/mL],concentration at 12 h [4] [ng/mL],concentration at 24 h [4] [ng/mL],concentration at 48 h [4] [ng/mL],concentration at 72 h [4] [ng/mL],"half-life [5, 6] [h]",share of the total TPPU-related exposure in blood ([5]; rat blood) [%],detection as TPPU metabolite [1],"share of TPPU metabolism, if formed [1] [%]","concentration in rat urine, if formed (below method detection limit) [1] [ng/mL]",other results
4-(trifluoromethoxy)aniline,–,–,–,–,–,–,–,–,–,–,–,–,–,–,–,not detectable,< 0.01,< 0.1,–
"O=C(Nc1ccc(OC(F)(F)F)cc1)NC1CCN(C(=O)CCO)CC1 [Compound M2, 1-(1-(3-hydroxypropanoyl)piperidin-4-yl)-3-(4-(trifluoromethoxy)phenyl)urea]",4.3,6.8,6.7,1.9,43 ± 31,16 ± 2 nM,found in all species tested,failed to be detected,2.7,3.2,7.6,3,61 ± 60,9.7 ± 0.8,< 0.4,–,–,–,–
"CC(=O)C(=O)N1CCC(NC(=O)Nc2ccc(OC(F)(F)F)cc2)CC1 [α-Keto amide, 1-(1-(2-oxopropanoyl)piperidin-4-yl)-3-(4-(trifluoromethoxy)phenyl)urea]",–,–,–,–,–,–,–,–,–,–,–,–,–,–,–,not detectable,< 0.01,< 0.5,–

# The next lines start with results.
"concentration at 8 h ([2]; male, Sprague Dawley, feces) [ng/mL]","concentration at 12 h ([2]; male, Sprague Dawley, feces) [ng/mL]","concentration at 24 h ([2]; male, Sprague Dawley, feces) [ng/mL]","concentration at 48 h ([2]; male, Sprague Dawley, feces) [ng/mL]","concentration at 72 h ([2]; male, Sprague Dawley, feces) [ng/mL]",IC50 (recombinant human sEH),formation of metabolite in liver S9 fractions [3],formation of metabolite in liver S9 fractions in the absence of a NADPH generation system [3],concentration at 8 h [4] [ng/mL],concentration at 12 h [4] [ng/mL],concentration at 24 h [4] [ng/mL],concentration at 48 h [4] [ng/mL],concentration at 72 h [4] [ng/mL],"half-life [5, 6] [h]",share of the total TPPU-related exposure in blood ([5]; rat blood) [%],Molecule,detection as TPPU metabolite [1],"share of TPPU metabolism, if formed [1] [%]","concentration in rat urine, if formed (below method detection limit) [1] [ng/mL]",other results
3.6,8.3,1.1,3.4,1.7,83.5 nM and 83 nM,found in all species tested,could still be produced,2.5,2.9,1,1.5,44 ± 21,14 ± 2.7,< 0.4,"O=C(Nc1ccc(OC(F)(F)F)cc1)NC1CCNCC1 [Compound M3, 1-(piperidin-4-yl)-3-(4-(trifluoromethoxy)phenyl)urea]",–,–,–,"fold lower potency than TPPU toward human sEH (recombinant human sEH; ratio of IC50 values, versus TPPU): 80 fold"
3,1.2,2.2,6.4,2.1,158 ± 10 nM,not detected,–,1,1.1,2.4,1.2,1.7,17 ± 4.7,< 0.4,"O=C(O)CC(=O)N1CCC(NC(=O)Nc2ccc(OC(F)(F)F)cc2)CC1 [Compound M4, 3-oxo-3-(4-(3-(4-(trifluoromethoxy)phenyl)ureido)piperidin-1-yl)propanoic acid]",–,–,–,"Cmax ([2]; male, Sprague Dawley, feces): 22000 ng/mL; time of Cmax in feces [2]: 24 h; Cmax ([5]; male, Sprague Dawley, whole blood, rat blood, oral gavage 10 mg/kg, n = 4, read-out: Cmax (maximum blood concentration)): 53 ± 28 nM"
